Laboratory results taken from patent EP4800016A1, “METTL3 INHIBITOR” (Hangzhou Bangshun Pharmaceutical Co., Ltd., priority 2023, dated 2025).

Assays:
Kasumi-1 cells = assay: Kasumi-1 cell inhibitory activity (CellTiter-Glo, 5 days); assay type: cell-based; settings: Homo sapiens, 120 h, 5 days incubation, CellTiter-Glo luminescence
Method: Test compounds were dissolved in DMSO to prep are a 250×final concentration solution. The initial concentration was 10 µM with 3-fold dilution, resulting in a total of ten concentration points. 4 µL of the compound solution was added to 96 µL of cell culture medium to dilute it to 10×the final concentration. On the first day, Kasumi-1 cells (purchased from Precedo) were suspended in cell culture medium at the desired density, 90 µL of the cell suspension was added to a 96-well plate, and 10 µL of 10×compound solution was added for incubation, with a final DMSO concentration of 0.4% in each well. Incubated at 37 °C, 5% CO2 for 5 days. Before measurement after 5 days, the test plate was placed at room temperature, 50 µL of CellTiter-Glo® reagent (purchased from Promega, Cat. No. G7573) was added, mixed on a shaker for 2 minutes to lyse the cells, and incubated at room temperature for 10 minutes to stabilize the […] signal. Luminescence values were recorded using Paradigm, and the response-concentration curve was fitted with Graphpad Pr ism 8.0 to calculate IC50values. The results of each compound are shown in Table2, where A indicates <100nM, B indicates 100-1000nM, and C indicates >1000nM. [formula]

METTL3/14 = target: T1, METTL3/14 (Homo sapiens, UniProt Q86U44); assay: METTL3/14 methyltransferase activity assay (HTRF); assay type: biochemical; settings: 10 concentrations, 3-fold dilution from 10 µM
T1 construct: purchased active motif 31570
T1 sequence (Q86U44 whole entry): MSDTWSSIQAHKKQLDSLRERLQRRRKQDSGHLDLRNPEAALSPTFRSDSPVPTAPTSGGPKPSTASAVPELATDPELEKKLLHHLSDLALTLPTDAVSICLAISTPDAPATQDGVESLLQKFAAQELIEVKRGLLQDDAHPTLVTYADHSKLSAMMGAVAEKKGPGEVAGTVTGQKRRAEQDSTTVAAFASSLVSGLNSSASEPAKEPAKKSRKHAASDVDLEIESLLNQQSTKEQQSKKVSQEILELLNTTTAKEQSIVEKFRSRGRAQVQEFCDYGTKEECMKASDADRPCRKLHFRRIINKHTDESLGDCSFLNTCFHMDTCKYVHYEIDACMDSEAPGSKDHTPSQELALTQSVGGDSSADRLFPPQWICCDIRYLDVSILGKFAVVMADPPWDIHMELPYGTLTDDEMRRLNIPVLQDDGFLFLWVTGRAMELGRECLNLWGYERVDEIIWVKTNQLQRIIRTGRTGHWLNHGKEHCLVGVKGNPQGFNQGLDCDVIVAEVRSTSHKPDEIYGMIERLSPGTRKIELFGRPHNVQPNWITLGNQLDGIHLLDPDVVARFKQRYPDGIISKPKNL
T1 sequence (Q9HCE5 whole entry partner): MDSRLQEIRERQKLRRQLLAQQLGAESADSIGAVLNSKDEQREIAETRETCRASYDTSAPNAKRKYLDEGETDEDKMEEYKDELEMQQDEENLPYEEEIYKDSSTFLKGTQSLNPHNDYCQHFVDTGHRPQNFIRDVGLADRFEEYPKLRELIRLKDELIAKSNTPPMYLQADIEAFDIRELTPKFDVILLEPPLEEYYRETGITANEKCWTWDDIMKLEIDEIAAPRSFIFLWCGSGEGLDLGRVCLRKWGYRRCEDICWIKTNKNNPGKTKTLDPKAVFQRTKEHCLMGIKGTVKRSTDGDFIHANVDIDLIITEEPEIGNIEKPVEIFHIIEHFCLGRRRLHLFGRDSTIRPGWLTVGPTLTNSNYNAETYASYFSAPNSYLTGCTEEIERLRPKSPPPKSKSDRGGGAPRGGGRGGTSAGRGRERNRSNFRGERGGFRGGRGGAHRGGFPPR
How it was run: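 METTL3/14 preincubated with compound (10-point 3-fold series from 10 µM final top) 10 min at 25°C, then biotinylated substrate plus SAM for 60 min. Methylation read by HTRF with YTHDF1, streptavidin-Tb and anti-Flag acceptor after 60 min at 25°C.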

[1] = Rat pharmacokinetic test, intravenous injection; assay type: in vivo; settings: male, SD, plasma, rats, 2 mg/kg, average of 3 rats
Method: 3.1 Experimental Animals: Male SD rats, weighing 190-230 g, 3 rats per compound 3.2 Experimental Design: All animals were fasted overnight (10-14 hours) the day before admin istration and fed 4 hours after admin istration. For intravenous injection, the drug vehicle was 5% DMA + 5% Solutol + 90% Saline (DMA: dimethylacetamide; Solutol: polyethyleneglycol-15-hydroxystearate; Saline: normal saline), with a dosage of 2 mg/kg and an admin istration concentration of 1 mg/mL. Blood samples were collected via the jugular vein at 5 min, 15 min, 30 min, 1 h, 2 h, 4 h, 6 h, 8 h, and 24 h after admin istration. Approximately 0.25 mL of each sample was collected, anticoagulated with EDTA-K2, placed on ice after collection, and centrifuged to separate plasma within 1 hour (6000 g, 3 min, 2-8°C). Plasma samples were stored in a - 80°Crefrigerator before analys is.
3.3 Result Analys is:Collected samples were detected using LC-MS/MS method. Pharmacokinetic parameters were calculated from blood drug concentration data at different time points using Phoenix WinNonlin 8.2.0 to obtain the average values of in vivo clearance (CL) and AUC0-t. Table 3 CL and AUC of test compounds after intravenous injection in rats

Row | SMILES | IC50 (Kasumi-1 cells) [nM] | IC50 (METTL3/14) [nM] | AUC(0-t) [1] [ng·h/mL] | clearance [1] [mL/min/kg]
1 | [2H]C([2H])(NCc1cc2cc(F)c(CNC(=O)c3cc(=O)n4cc5c(cc4n3)OCO5)cc2[nH]1)C1CCC1 [Example 88, N-((2-(((Cyclobutylmethyl-d2)amino)methyl)-5-fluoro-1H-indol-6-yl)methyl)-8-oxo-8H-[1,3]dioxolo[2',3':4,5]pyrido[1,2-a]pyrimidine-6-carboxamide] | < 100 | < 10 | 1710 | 19.1
2 | [2H]C([2H])(NCc1cc2cc(F)c(CNC(=O)c3cc(=O)n4cc5c(cc4n3)OCO5)cc2[nH]1)C12CC(F)(C1)C2 [Example 89, N-((5-Fluoro-2-((((3-fluorobicyclo[1.1.1]pentan-1-yl)methyl-d2)amino)methyl)-1H-indol-6-yl)methyl)-8-oxo-8H-[1,3]dioxolo[2',3':4,5]pyrido[1,2-a]pyrimidine-6-carboxamide] | < 100 | < 10 | 1210 | 28.1
3 | [2H]C([2H])(NCc1cc2cc(F)c(CNC(=O)c3cc(=O)n4cc5c(cc4n3)OCCO5)cc2[nH]1)C12CC(F)(C1)C2 [Example 94, N-((5-fluoro-2-((((3-fluorobicyclo[1.1.1]pentan-1-yl)methyl-d2)amino)methyl)-1H-indol-6-yl)methyl)-9-oxo-2,3-dihydro-9H-[1,4]dioxino[2',3':4,5]pyrido[1,2-a]pyrimidine-7-carboxamide] | < 100 | < 10 | 1120 | 28.5
